From US20150368681A1, “Dehydroascorbic Acid Process” (priority 2014, published 2015)

Assay: Storage stability of DHAA in oxidized zucchini puree product, DHAA concentration by TCEP differential absorbance method
Type: physicochemical
Experimental: Four zucchini fruits about 6-8 inches long were purchased at a local grocery store. The shelf labeling indicated the fruits were a product of Mexico, as might be expected in Utah during the month of November when this experiment was conducted. Thus the fruit was not locally-grown and probably older (stored longer since picked) than known fresh-picked fruit. It is known that the AAO activity of zucchini fruit decreases during storage after being picked. The epicarp and outer portions of the mesocarp were peeled from the fruits, to the extent that approximately one-half of the weight of each fruit was included in the peelings. 300 grams of peelings were added to a blender with 100 grams purified water and pureed. 20 grams of the puree was removed and reserved for a “blank”. To the remaining puree (380 grams) was added 1.4 grams AA (as pure crystals approximately US mesh size 20-40) and the puree was mixed in the blender about 1 minute. The pH of the puree was measured and found to be 5.2, and a redox test indicated AA reducing activity in the puree. The puree was allowed to stand with periodic brief mixing for 35 minutes. […] A 20 gram portion was removed for a “test.” The blank and test solutions were centrifuged to remove the pulp so that pulp-free solutions could be spectrophotometrically analyzed. 25 uL of each of these solutions were diluted in 10 mL of 0.15 M phosphoric acid diluent, and the absorbance of each was determined using a UV spectrometer at 262 nm wavelength blanked against diluent. 2 mL of each dilution were combined with 2 mL of a TCEP reagent, incubated one hour, and then the absorbance at 262 nm of these solutions were determined as above (TCEP reagent reduces DHAA in the solution to AA; absorbance measurements at wavelengths where AA strongly absorbs, before and after treatment with TCEP, is a method known to practitioners in the art to quantify DHAA concentration by the differential absorption principle). The following absorption values were obtained (TCEP values are corrected for the X2 dilution):
One whole zucchini fruit weighing 235 grams was pureed in 120 mL water in a blender. The pH of the initial zucchini puree was 6.5. At time 0 minutes, 1.0 gram crystalline AA was added. After mixing 30 seconds, the pH was 5.0. At the times indicated in the table below, pH was recorded, iodine indicator redox result was recorded, and/or additional AA in the amounts indicated were added after testing the pH and redox status. The zucchini puree was continuously mixed in the blender during the entire time, and a cap in the top of the blender was left open to allow fresh air to be drawn into the vortex of the puree in the blender.
The product was split into three equal parts. Part 1 was kept in a closed container at room temperature. Part 2 was kept in a closed container at standard refrigerator temperature of 4 degrees C. Part 3 was kept in a closed container at common freezer temperature of minus 20 degrees C. Part 1 was tested immediately for DHAA concentration by the TCEP method previously discussed, and then after overnight storage (approx. 12 hours); Part 2 was tested after overnight storage (approx. 12 hours), and then after 13 days; Part 3 was tested after 13 days. Recovery column is the actual concentration divided by the maximum expected DHAA concentration of 2.4%, expressed as percent.

DHAA Concentration (Example 3 product, Part 1, tested immediately, storage 0 hours): 2.27%
DHAA Concentration (Part 1, closed container, room temperature, 12 hours): 1.68%
DHAA Concentration (Part 2, refrigerator 4 degrees C, 12 hours): 2.14%
DHAA Concentration (Part 2, refrigerator 4 degrees C, 312 hours (13 d)): 1.27%
DHAA Concentration (Part 3, freezer minus 20 degrees C, 312 hours (13 d)): 2.10%
Loss of DHAA on frozen storage (product stored frozen for at least 13 days): minimal loss
Compound: O=C1O[C@H]([C@@H](O)CO)C(=O)C1=O [DHAA, dehydroascorbic acid]
